Data: patent publication US20050239656A1, “Pyridine compounds or salts thereof and herbicides containing the same” (priority 2002, published 2005)

Test system: rice
Assay: Test Example 1: foliage treatment, upland pot test
Type: in vivo, Oryza sativa L.
Conditions: crop, active ingredient 500 g/ha, observed 18th to 23rd day, 0 = non-treated, 100 = complete kill
Summary of the method: (§1)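 Upland pot test, foliar. Soybean 0.1–0.4 / wheat 1.3–2.4 / rice 1.2–2.6 / barnyardgrass 1.3–2.8 leaf stage at spraying; 500 L/ha carrier, 0.1% (v/v) spreader. Visual % control, 0 untreated to 100 dead, days 18–23.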

Row | Structure (SMILES) | Growth controlling degree (%) Rice [%]
1 | CCCC(=O)N(C)C(c1cnccc1C(F)(F)F)C(C)C (centres unmarked) [I-189, N-methyl-N-[2-methyl-1-(4-trifluoromethylpyridin-3-yl)propyl]butanamide] | 80

Test system: prickly sida
Assay: Test Example 1: foliage treatment, upland pot test
Type: in vivo, Sida spinosa L.
Conditions: active ingredient 500 g/ha, observed 18th to 23rd day, 0 = non-treated, 100 = complete kill

Row | Structure (SMILES) | Growth controlling degree (%) Prickly sida [%]
2 | CCCC(=O)N(C)C(c1cnccc1C(F)(F)F)C(C)C (centres unmarked) [I-189, N-methyl-N-[2-methyl-1-(4-trifluoromethylpyridin-3-yl)propyl]butanamide] | 85

Test system: corn
Assay: Test Example 1: foliage treatment, upland pot test
Type: in vivo, Zea mays L.
Conditions: crop, active ingredient 500 g/ha, observed 18th to 23rd day, 0 = non-treated, 100 = complete kill
Summary of the method: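 In this upland pot foliage test, corn plants at 2.1 to 3.2 leaf stages were sprayed by a small size sprayer. The spray was a conventionally formulated wettable powder or emulsifiable concentrate weighed to a set active ingredient amount, diluted in water at 500 L/ha, plus 0.1% (v/v) agricultural spreader. Visual assessment on days 18 to 23 gave growth controlling degree (%), where 0 equals untreated and 100 means complete kill.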

Row | Structure (SMILES) | Growth controlling degree (%) Corn [%]
3 | CCCC(=O)N(C)C(c1cnccc1C(F)(F)F)C(C)C (centres unmarked) [I-189, N-methyl-N-[2-methyl-1-(4-trifluoromethylpyridin-3-yl)propyl]butanamide] | 90

Test system: wheat
Assay: Test Example 1: foliage treatment, upland pot test
Type: in vivo, Triticum spp.
Conditions: crop, active ingredient 500 g/ha, observed 18th to 23rd day, 0 = non-treated, 100 = complete kill
Text: Upland field soil was put into a 1/170,000 ha pot, and seed of various plants were sown. Then, when the plants reached predetermined leaf stages ((1) barnyardgrass: 1.3 to 2.8 leaf stages, (2) crabgrass: 1.0 to 2.8 leaf stages, (3) green foxtail: 1.3 to 2.6 leaf stages, (4) redroot pigweed: 0.1 to 1.2 leaf stages, (5) prickly sida: 0.1 to 1.2 leaf stages, (6) velvetleaf: 0.1 to 1.2 leaf stages, (7) tall morningglory: 0.1 to 1.5 leaf stages, (8) rice: 1.2 to 2.6 leaf stages, (9) wheat: 1.3 to 2.4 leaf stages, (10) corn, 2.1 to 3.2 leaf stages, (11) soybean: 0.1 to 0.4 leaf stage), a wettable powder or emulsifiable concentrate having the compound of the present invention formulated in accordance with a usual formulation method, was weighed so that the active ingredient would be a predetermined amount, and diluted with water in an amount of 500 L/ha. To the diluted solution, 0.1% (v/v) of agricultural spreader was added. The herbicide thus adjusted was applied by a small size sprayer for foliage treatment. On the 18th to 23rd days after the application of the herbicide, the growth of the respective plants was visually observed, and the herbicidal effects were evaluated by the growth controlling degrees (%) ranging from 0 (equivalent to the non-treated plot) to 100 (complete kill), whereby the results shown in Table 3, were obtained.

Row | Structure (SMILES) | Growth controlling degree (%) wheat [%]
4 | CCCC(=O)N(C)C(c1cnccc1C(F)(F)F)C(C)C (centres unmarked) [I-189, N-methyl-N-[2-methyl-1-(4-trifluoromethylpyridin-3-yl)propyl]butanamide] | 70

Test system: crabgrass
Assay: Test Example 1: foliage treatment, upland pot test
Type: in vivo, Digitaria sanguinalis L.
Conditions: active ingredient 500 g/ha, observed 18th to 23rd day, 0 = non-treated, 100 = complete kill

Row | Structure (SMILES) | Growth controlling degree (%) Crabgrass [%]
5 | CCCC(=O)N(C)C(c1cnccc1C(F)(F)F)C(C)C (centres unmarked) [I-189, N-methyl-N-[2-methyl-1-(4-trifluoromethylpyridin-3-yl)propyl]butanamide] | 98

Test system: japanese bulrush
Assay: Test Example 3: paddy pot test, application under submerged conditions
Type: in vivo, Scirpus juncoides
Conditions: active ingredient 500 g/ha; submerged application at 0.5 leaf stage; visually observed 14 days after application; 0 = non-treated, 100 = complete kill
Summary of the method: (§2)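 Visual growth-control rating (0 = untreated, 100 = complete kill) 14 days after treatment. The formulated compound, as a diluted wettable powder or emulsifiable concentrate, went into 3–4 cm flood water at a predetermined active-ingredient dose once the weeds reached 0.5 leaf stage (wapato: primary leaf stage).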

Row | Structure (SMILES) | Growth controlling degree (%) Japanese bulrush [%]
6 | CCCC(=O)N(C)C(c1cnccc1C(F)(F)F)C(C)C (centres unmarked) [I-189, N-methyl-N-[2-methyl-1-(4-trifluoromethylpyridin-3-yl)propyl]butanamide] | 98

Test system: japanese ribbon wapato
Assay: as above
Type: in vivo, Sagittaria pygniaea
Conditions: active ingredient 500 g/ha; submerged application at primary leaf stage; visually observed 14 days after application; 0 = non-treated, 100 = complete kill
Summary of the method: as §2

Row | Structure (SMILES) | Growth controlling degree (%) Japanese ribbon wapato [%]
7 | CCCC(=O)N(C)C(c1cnccc1C(F)(F)F)C(C)C (centres unmarked) [I-189, N-methyl-N-[2-methyl-1-(4-trifluoromethylpyridin-3-yl)propyl]butanamide] | 95

Test system: crabgrass
Assay: Test Example 2: soil surface treatment, upland pot test
Type: in vivo, Digitaria sanguinalis L.
Conditions: active ingredient 500 g/ha, observed 20th to 28th day
Summary of the method: (§3)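 Upland soil in pots of 1/170,000 ha is sown; on day 1 after sowing the formulated compound (wettable powder or emulsifiable concentrate, predetermined a.i. amount, water volume 1,500 L/ha) is applied to the soil surface with a small sprayer. Percent control is judged by eye 20–28 days later.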

Row | Structure (SMILES) | Growth controlling degree (%) Crabgrass [%]
8 | CCCC(=O)N(C)C(c1cnccc1C(F)(F)F)C(C)C (centres unmarked) [I-189, N-methyl-N-[2-methyl-1-(4-trifluoromethylpyridin-3-yl)propyl]butanamide] | 100

Test system: redroot pigweed
Assay: as above
Type: in vivo, Amaranthus retroflexus L.
Conditions: active ingredient 500 g/ha, observed 20th to 28th day
Summary of the method: as §3

Row | Structure (SMILES) | Growth controlling degree (%) Redroot pigweed [%]
9 | CCCC(=O)N(C)C(c1cnccc1C(F)(F)F)C(C)C (centres unmarked) [I-189, N-methyl-N-[2-methyl-1-(4-trifluoromethylpyridin-3-yl)propyl]butanamide] | 100

Test system: redroot pigweed
Assay: Test Example 1: foliage treatment, upland pot test
Type: in vivo, Amaranthus retroflexus L.
Conditions: active ingredient 500 g/ha, observed 18th to 23rd day, 0 = non-treated, 100 = complete kill

Row | Structure (SMILES) | Growth controlling degree (%) Redroot pigweed [%]
10 | CCCC(=O)N(C)C(c1cnccc1C(F)(F)F)C(C)C (centres unmarked) [I-189, N-methyl-N-[2-methyl-1-(4-trifluoromethylpyridin-3-yl)propyl]butanamide] | 80

Test system: barnyardgrass
Assay: Test Example 3: paddy pot test, application under submerged conditions
Type: in vivo, Echinochloa crus-galli L.
Conditions: active ingredient 500 g/ha; submerged application at 0.5 leaf stage; visually observed 14 days after application; 0 = non-treated, 100 = complete kill
Summary of the method: as §2

Row | Structure (SMILES) | Growth controlling degree (%) Barnyardgrass [%]
11 | CCCC(=O)N(C)C(c1cnccc1C(F)(F)F)C(C)C (centres unmarked) [I-189, N-methyl-N-[2-methyl-1-(4-trifluoromethylpyridin-3-yl)propyl]butanamide] | 100

Test system: rice (var. Nihonbare)
Assay: Test Example 3: paddy pot test, transplanted rice
Type: in vivo, Oryza sativa L.
Conditions: active ingredient 500 g/ha, applied 4th day after transplantation, visually observed 21st day after application, 0 = non-treated, 100 = complete kill
Summary of the method: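 Rice (var. Nihonbare) at 2 leaf stage transplanted 3 cm deep into puddled paddy soil under 3–4 cm flooding; on day 4 after transplanting, diluted wettable powder or emulsifiable concentrate applied by pipette under submerged conditions at a set active-ingredient dose. Growth scored visually 21 days after application, 0 (untreated) to 100 (complete kill) %.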

Row | Structure (SMILES) | Growth controlling degree (%) Rice [%]
12 | CCCC(=O)N(C)C(c1cnccc1C(F)(F)F)C(C)C (centres unmarked) [I-189, N-methyl-N-[2-methyl-1-(4-trifluoromethylpyridin-3-yl)propyl]butanamide] | 95

Test system: green foxtail
Assay: Test Example 1: foliage treatment, upland pot test
Type: in vivo, Setaria viridis L.
Conditions: active ingredient 500 g/ha, observed 18th to 23rd day, 0 = non-treated, 100 = complete kill

Row | Structure (SMILES) | Growth controlling degree (%) Green foxtail [%]
13 | CCCC(=O)N(C)C(c1cnccc1C(F)(F)F)C(C)C (centres unmarked) [I-189, N-methyl-N-[2-methyl-1-(4-trifluoromethylpyridin-3-yl)propyl]butanamide] | 90

Test system: barnyardgrass
Assay: Test Example 2: soil surface treatment, upland pot test
Type: in vivo, Echinochloa crus-galli L.
Conditions: active ingredient 500 g/ha, observed 20th to 28th day
Summary of the method: as §3

Row | Structure (SMILES) | Growth controlling degree (%) Barnyardgrass [%]
14 | CCCC(=O)N(C)C(c1cnccc1C(F)(F)F)C(C)C (centres unmarked) [I-189, N-methyl-N-[2-methyl-1-(4-trifluoromethylpyridin-3-yl)propyl]butanamide] | 100

Test system: corn
Assay: as above
Type: in vivo, Zea mays L.
Conditions: active ingredient 500 g/ha, observed 20th to 28th day
Summary of the method: as §3

Row | Structure (SMILES) | Growth controlling degree (%) Corn [%]
15 | CCCC(=O)N(C)C(c1cnccc1C(F)(F)F)C(C)C (centres unmarked) [I-189, N-methyl-N-[2-methyl-1-(4-trifluoromethylpyridin-3-yl)propyl]butanamide] | 50

Test system: rice
Assay: as above
Type: in vivo, Oryza sativa L.
Conditions: active ingredient 500 g/ha, observed 20th to 28th day
Summary of the method: as §3

Row | Structure (SMILES) | Growth controlling degree (%) Rice [%]
16 | CCCC(=O)N(C)C(c1cnccc1C(F)(F)F)C(C)C (centres unmarked) [I-189, N-methyl-N-[2-methyl-1-(4-trifluoromethylpyridin-3-yl)propyl]butanamide] | 100

Test system: soybean
Assay: Test Example 1: foliage treatment, upland pot test
Type: in vivo, Glycine max Merr.
Conditions: crop, active ingredient 500 g/ha, observed 18th to 23rd day, 0 = non-treated, 100 = complete kill
Summary of the method: as §1

Row | Structure (SMILES) | Growth controlling degree (%) Soybean [%]
17 | CCCC(=O)N(C)C(c1cnccc1C(F)(F)F)C(C)C (centres unmarked) [I-189, N-methyl-N-[2-methyl-1-(4-trifluoromethylpyridin-3-yl)propyl]butanamide] | 80

Test system: soybean
Assay: Test Example 2: soil surface treatment, upland pot test
Type: in vivo, Glycine max Merr.
Conditions: active ingredient 500 g/ha, observed 20th to 28th day
Summary of the method: as §3

Row | Structure (SMILES) | Growth controlling degree (%) Soyabean [%]
18 | CCCC(=O)N(C)C(c1cnccc1C(F)(F)F)C(C)C (centres unmarked) [I-189, N-methyl-N-[2-methyl-1-(4-trifluoromethylpyridin-3-yl)propyl]butanamide] | 95

Test system: green foxtail
Assay: as above
Type: in vivo, Setaria viridis L.
Conditions: active ingredient 500 g/ha, observed 20th to 28th day
Summary of the method: as §3

Row | Structure (SMILES) | Growth controlling degree (%) Green foxtail [%]
19 | CCCC(=O)N(C)C(c1cnccc1C(F)(F)F)C(C)C (centres unmarked) [I-189, N-methyl-N-[2-methyl-1-(4-trifluoromethylpyridin-3-yl)propyl]butanamide] | 100

Test system: velvetleaf
Assay: Test Example 1: foliage treatment, upland pot test
Type: in vivo, Abutilon theophrasti MEDIC.
Conditions: active ingredient 500 g/ha, observed 18th to 23rd day, 0 = non-treated, 100 = complete kill

Row | Structure (SMILES) | Growth controlling degree (%) Velvetleaf [%]
20 | CCCC(=O)N(C)C(c1cnccc1C(F)(F)F)C(C)C (centres unmarked) [I-189, N-methyl-N-[2-methyl-1-(4-trifluoromethylpyridin-3-yl)propyl]butanamide] | 70

Test system: barnyardgrass
Assay: Test Example 1: foliage treatment, upland pot test
Type: in vivo, Echinochloa crus-galli L.
Conditions: active ingredient 500 g/ha, observed 18th to 23rd day, 0 = non-treated, 100 = complete kill
Summary of the method: as §1

Row | Structure (SMILES) | Growth controlling degree (%) Barnyardgrass [%]
21 | CCCC(=O)N(C)C(c1cnccc1C(F)(F)F)C(C)C (centres unmarked) [I-189, N-methyl-N-[2-methyl-1-(4-trifluoromethylpyridin-3-yl)propyl]butanamide] | 90

Test system: velvetleaf
Assay: Test Example 2: soil surface treatment, upland pot test
Type: in vivo, Abutilon theophrasti MEDIC.
Conditions: active ingredient 500 g/ha, observed 20th to 28th day
Summary of the method: as §3

Row | Structure (SMILES) | Growth controlling degree (%) Velvetleaf [%]
22 | CCCC(=O)N(C)C(c1cnccc1C(F)(F)F)C(C)C (centres unmarked) [I-189, N-methyl-N-[2-methyl-1-(4-trifluoromethylpyridin-3-yl)propyl]butanamide] | 90

Test system: prickly sida
Assay: as above
Type: in vivo, Sida spinosa L.
Conditions: active ingredient 500 g/ha, observed 20th to 28th day
Summary of the method: as §3

Row | Structure (SMILES) | Growth controlling degree (%) Prickly sida [%]
23 | CCCC(=O)N(C)C(c1cnccc1C(F)(F)F)C(C)C (centres unmarked) [I-189, N-methyl-N-[2-methyl-1-(4-trifluoromethylpyridin-3-yl)propyl]butanamide] | 90
